“And” between values parts separate entries of the source, which are not always exact repeats. Equal entries are not always repeated. Where two headings read alike, the source gives them in different places.
Key:
[1] = test system: MAO-B; assay type: in vivo, Macaca fascicularis
Method: Each PET measurement was performed on a separate experimental day. Experiments conducted in the same NHP were separated by at least 6 weeks. Baseline PET measurements were initially undertaken in each of the five NHPs.
Time curves for regional [^18F]GEH200449 binding at baseline were analyzed by kinetic modeling using 1-TC and 2-TC models,[32] and VT as outcome measures. Akaike information criterion[33] and F statistics were applied to select the preferred model. Regional estimates of VT for [^18F]GEH200449 were also obtained using the Logan linear graphical method[34] with t* fixed at 40 min. The analyses were performed using the kinetic modeling tool in PMOD v. 4.3. Occupancy at [^18F]GEH200449 binding sites was estimated based on regional VT values obtained by the Logan method at baseline and after drug administration according to a graphical procedure described in the literature.[22]

[2] = test system: MAO-B; parameters: method as in PMID 31589885; details: cited from earlier work

SMILES	effect on [^18F]GEH200449 regional radioactivity ([1]; 1.0 mg/kg, 15 min before PET, NHP #5)	affinity toward MAO-B [2]	effect on [^18F]GEH200449 regional radioactivity ([1]; 0.15 mg/kg, 15 min before PET, NHP #3)	occupancy at MAO-B ([^18F]GEH200449 binding sites) ([1]; 0.75 mg/kg IV, 45 min before radioligand, NHP #4, graphical analysis of VT)	inhibitory effect on [^18F]GEH200449 binding, dose dependency ([1]; 0.25 and 0.75 mg/kg pretreatment, NHP #4)	effect on [^18F]GEH200449 regional radioactivity ([1]; pretreatment 45 min before radioligand injection)
CN1CC(=O)NC1=NC(=O)Nc1cccc(Cl)c1 [fenobam]	reduction	high affinity	–	–	–	–
N#Cc1cc(F)cc(-c2nc(-c3ccc(F)cn3)no2)c1 [AZD9272]	–	high affinity	reduction	–	–	–
C#CCN[C@@H]1CCc2ccccc21 [rasagiline, N-Propargyl-1R(+)-Aminoindan]	–	–	–	97% and > 80%	more pronounced after the higher dose	inhibited

From article PMC10485887, “PET Evaluation of the Novel F-18 Labeled Reversible Radioligand [^18F]GEH200449 for Detection of Monoamine Oxidase-B in the Non-Human Primate Brain” (ACS Chemical Neuroscience, 2023)
